The text below walks through data of US6653304B2, “Cannabinoid receptor modulators, their processes of preparation, and use of cannabinoid receptor modulators for treating respiratory and non-respiratory diseases” (Bristol-Myers Squibb Co., priority 2000, dated 2003).

This assay deals with human lung epithelial cell lines H292 and A549. Kind of assay: Activation of lung epithelial cells. The assay is classed as cell-based. The method, then:
(2) Activation of Lung Epithelial Cells
The ability of the cannabinoids to inhibit mucin, chemokine/cytokine production from lung epithelial cells is evaluated with human lung epithelial cell lines H292 and A549. Epithelial cells are cultured overnight in 48 well microtiter plates in complete RMPI […] (200 μl/well) at a density of 2×10^5 cells/ml. The media is removed and replaced with fresh media. Test compounds in 50 μl isotonic buffer are added and incubated for 1 hour at 37° C. Cell activation is triggered by the addition of a stimulatory agent comprising one of EGF, smoke conditioned media, TNF-α or IL-1β. In this assay, the IC50 for Win-55212-2<20 mcM. After a desired period of time (e.g., 24 h) the cell supernatants are removed and assayed for mucin cytokine and chemokines by ELISA. The cannabinoid agonists inhibit mucin and IL-8 production from lung epithelial cells.

Some results are limits rather than exact numbers.

Consider `Cc1c(C(=O)c2cccc3ccccc23)c2cccc3c2n1[C@H](CN1CCOCC1)CO3` [Win-55212-2], for which the “activity in the lung epithelial cell assay” value is “demonstrated activity”. Further, the IC50 (in general, the concentration at which inhibition is half-maximal) (stimulated with EGF, smoke conditioned media, TNF-α or IL-1β, mucin, cytokine and chemokines by ELISA) was less than 20 µM.
